One assay has as its target T1, glucocorticoid receptor (Homo sapiens, UniProt P04150).
T1 construct: containing 50-200 ug of A549 cell extract and 1.86 nM [^3H]-dexamethasone; host or cells: A549 human lung epithelial cells (sonicated cell extract)
T1 sequence (P04150 1-777): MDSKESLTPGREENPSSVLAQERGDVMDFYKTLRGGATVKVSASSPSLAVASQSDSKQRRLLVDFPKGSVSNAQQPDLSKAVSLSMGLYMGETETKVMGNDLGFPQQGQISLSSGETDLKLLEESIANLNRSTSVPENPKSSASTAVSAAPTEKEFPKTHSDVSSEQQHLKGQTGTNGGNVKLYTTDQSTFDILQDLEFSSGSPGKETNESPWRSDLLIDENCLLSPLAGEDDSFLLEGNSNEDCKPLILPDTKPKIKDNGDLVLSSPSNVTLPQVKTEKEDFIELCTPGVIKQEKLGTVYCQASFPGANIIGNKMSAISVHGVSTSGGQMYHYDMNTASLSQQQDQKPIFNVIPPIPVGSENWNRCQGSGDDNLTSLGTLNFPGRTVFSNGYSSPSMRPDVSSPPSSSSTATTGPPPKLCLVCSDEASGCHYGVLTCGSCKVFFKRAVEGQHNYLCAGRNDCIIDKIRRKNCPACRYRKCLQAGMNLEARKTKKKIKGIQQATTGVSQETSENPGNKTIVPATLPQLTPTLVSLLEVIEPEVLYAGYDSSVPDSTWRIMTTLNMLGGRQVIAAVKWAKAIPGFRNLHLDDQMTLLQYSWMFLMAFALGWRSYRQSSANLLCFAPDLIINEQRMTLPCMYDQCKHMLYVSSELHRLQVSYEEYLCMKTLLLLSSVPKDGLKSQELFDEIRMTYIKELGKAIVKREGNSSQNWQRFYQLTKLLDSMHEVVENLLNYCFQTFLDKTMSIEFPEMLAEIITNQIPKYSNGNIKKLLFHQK
Nature of the assay: Glucocorticoid Receptor Binding Assay ([3H]-dexamethasone, A549 cell extract). The conditions noted are these: [3H]-dexamethasone binding, read-out: GR Ki. In outline: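 A549 cell extract (50–200 ug) incubated with 1.86 nM [3H]-dexamethasone and test compound for 16 h at 4 °C in Tris-HCl pH 7.2 buffer with glycerol and molybdate. Unbound radioligand removed by dextran-coated charcoal, then supernatant bound counts measured by scintillation.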

For a further assay, the target named is T2, human MR (Homo sapiens, UniProt P08235).
T2 construct: The full length human MR gene is cloned from a human kidney or human brain cDNA library; His tag from the pAcHLT vector (own knowledge); made in house; host or cells: Sf9 insect cells (baculovirus, pAcHLT transfer vector)
T2 sequence (P08235 1-984): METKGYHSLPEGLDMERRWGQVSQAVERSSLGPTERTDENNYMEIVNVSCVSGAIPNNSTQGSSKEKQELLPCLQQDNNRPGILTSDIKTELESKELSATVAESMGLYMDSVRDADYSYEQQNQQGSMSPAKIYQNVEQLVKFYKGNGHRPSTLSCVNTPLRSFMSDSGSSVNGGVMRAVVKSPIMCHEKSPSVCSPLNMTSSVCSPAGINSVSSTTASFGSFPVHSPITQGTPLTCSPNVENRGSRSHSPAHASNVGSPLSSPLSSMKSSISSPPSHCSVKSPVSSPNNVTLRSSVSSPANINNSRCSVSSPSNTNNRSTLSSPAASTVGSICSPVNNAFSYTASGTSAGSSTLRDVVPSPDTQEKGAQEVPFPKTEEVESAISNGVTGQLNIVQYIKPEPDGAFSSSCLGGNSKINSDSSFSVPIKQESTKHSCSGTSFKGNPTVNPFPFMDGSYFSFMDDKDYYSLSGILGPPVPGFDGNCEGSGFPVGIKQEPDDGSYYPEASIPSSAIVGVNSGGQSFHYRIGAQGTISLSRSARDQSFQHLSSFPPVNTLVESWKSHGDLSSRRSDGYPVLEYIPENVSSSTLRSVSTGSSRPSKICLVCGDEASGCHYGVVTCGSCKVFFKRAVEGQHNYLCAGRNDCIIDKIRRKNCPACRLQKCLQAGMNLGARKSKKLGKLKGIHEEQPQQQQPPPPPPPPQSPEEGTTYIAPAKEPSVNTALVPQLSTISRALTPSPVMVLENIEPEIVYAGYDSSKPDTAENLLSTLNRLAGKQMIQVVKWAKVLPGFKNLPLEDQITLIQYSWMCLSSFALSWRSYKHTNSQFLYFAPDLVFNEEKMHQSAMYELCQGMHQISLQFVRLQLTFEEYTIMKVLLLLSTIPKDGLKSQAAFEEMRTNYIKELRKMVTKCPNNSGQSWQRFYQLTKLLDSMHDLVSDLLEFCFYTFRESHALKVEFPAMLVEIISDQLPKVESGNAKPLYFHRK
Nature of the assay: Mineralocorticoid Receptor Binding Assay ([3H]-aldosterone). The conditions noted are these: [3H]-aldosterone binding, human MR expressed in Sf9 cells; read-out: MR Ki. In outline:
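Lysate supernatant of Sf9 cells expressing full-length human MR (20-25 μg protein) was incubated with 0.5 nM [3H]-aldosterone and test compound in molybdate/Tris/phosphate/glycerol buffer, pH 7.5, ~16 h at 4 °C. Bound ligand was filtered and counted by scintillation; IC50 is the concentration halving [3H]-aldosterone binding.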

pKi: −log10 of the molar value. Bounds are passed on as bounds.

A word on the pKi: it is the Ki on a negative log10 scale, so that one unit is a factor of ten. Take `Oc1cccc(C=C2c3ccccc3CCc3cc(OCCN4CCOCC4)ccc32)c1` [195(a), 3-[2-(2-Morpholin-4-yl-ethoxy)-10,11-dihydro-dibenzo[a,d]cyclohepten-5-ylidenemethyl]-phenol]: the pKi at glucocorticoid receptor is more than 6.00; at human MR, more than 6.30.
Taken in the same sequence, the figures for `Fc1ccc2c(c1)CCc1ncccc1/C2=C/c1cccc(C(F)F)c1` [Example 541] were more than 6.00 and more than 6.30.
Consider `CS(=O)(=O)Nc1cccc(/C=C2\c3ccccc3COc3ccc(Cl)cc32)c1` [Example 681], for which the pKi on glucocorticoid receptor and at human MR was more than 6.30 in each case.
As to `CCC(=C1c2ccc(F)cc2CCc2cc(F)ccc21)c1cccc(NS(C)(=O)=O)c1` [Example 776], the pKi on glucocorticoid receptor and on human MR was more than 6.30 in each case.
In the case of `N#Cc1ccc2c(c1)CCc1ccccc1/C2=C/c1ccc2[nH]c(=O)[nH]c2c1` [Example 455], the negative logarithm of the Ki (pKi) on glucocorticoid receptor was more than 5.00; on human MR it was more than 6.30.
Taken in the same sequence, the figures for `CS(=O)(=O)Nc1cccc(/C=C2/c3ccccc3OCc3c(Cl)cccc32)c1` [Example 622] were more than 5.00 and more than 6.30.
In the same order, the values of `Nc1n[nH]c2cc(C=C3c4ccc(F)cc4CCc4cc(F)ccc43)ccc12` [Example 460] are more than 6.00 and more than 6.30.
In the same order, the values of `Cn1c(=O)[nH]c2cc(C=C3c4ccccc4CCc4ccccc43)ccc21` [Example 454] are more than 6.30 and more than 6.30.
For the compound `CS(=O)(=O)Nc1cccc(/C=C2\c3ccccc3CCc3cc(S(C)(=O)=O)ccc32)c1` [Example 392], the pKi at glucocorticoid receptor and on human MR was more than 6.30 each time.
In the case of `Oc1cc(F)cc(C=C2c3ccccc3CCc3ccccc32)c1` [Example 155, 3-(10,11-Dihydro-dibenzo[a,d]cyclohepten-5-ylidenemethyl)-5-fluoro-phenol], the pKi on glucocorticoid receptor and on human MR was more than 6.30 each time.
In the case of `Cc1ccccc1CC1c2ccccc2CCc2ccccc21` [Example 282], the negative-log Ki (pKi) at glucocorticoid receptor and at human MR was more than 6.30 each time.
As to `COc1ccc(C(=C2c3ccccc3CCc3ccccc32)c2cccc(NS(C)(=O)=O)c2)cc1` [Example 768], the pKi at glucocorticoid receptor is more than 5.00; at human MR, more than 6.30.
Taken in the same sequence, the figures for `Fc1cccc(/C=C2/c3ccc(F)cc3CCc3ncccc32)c1` [Example 583] were more than 5.00 and more than 6.30.
Regarding `O=c1[nH]c2ccc(/C=C3/c4ccc(F)cc4CCc4nc(Cl)sc43)cc2[nH]1` [Example 549], the values for the negative-log Ki (pKi) at glucocorticoid receptor and at human MR were more than 5.00 and more than 6.30, respectively.
Taken in the same sequence, the figures for `CS(=O)(=O)Nc1cccc(C=C2c3ccccc3CCc3cc(-c4ccccc4)ccc32)c1` [Example 412] were more than 6.00 and more than 6.30.
Take `C/C(=C1/c2ccccc2COc2ccccc21)c1cccc(NS(C)(=O)=O)c1` [Example 796]: the negative-log Ki (pKi) on glucocorticoid receptor and on human MR was more than 6.30 each time.
Regarding `Oc1ccc(/C=C2\c3ccc(F)cc3CCc3ncccc32)cc1` [Example 528], the results for the pKi at glucocorticoid receptor and on human MR were more than 6.00 and more than 6.30, respectively.
Take `CS(=O)(=O)Nc1cccc(CC2c3ccc(F)cc3CCc3ncccc32)c1` (centres unmarked) [Example 519]: the pKi on glucocorticoid receptor and at human MR was more than 6.30 each time.
`C/C(=C1/c2ccccc2COc2cc(F)ccc21)c1ccc2[nH]c(=O)[nH]c2c1` [Example 838]: the pKi on glucocorticoid receptor and at human MR was more than 6.30 throughout.
In the case of `CS(=O)(=O)Nc1cccc(C=C2c3ccccc3CCc3cc(F)ccc32)c1` [199(a), N-[3-(2-Fluoro-10,11-dihydro-dibenzo[a,d]cyclohepten-5-ylidenemethyl)-phenyl]-methanesulfonamide], the pKi on glucocorticoid receptor and at human MR was more than 6.30 in each case.
`Fc1ccc2c(c1)CCc1ncccc1/C2=C/c1cccc(C(F)(F)F)c1` [Example 590]: the pKi was more than 6.00 at glucocorticoid receptor and more than 6.30 at human MR.
In the same order, the values of `Cc1ccc2c(c1)CCc1ccccc1C2=Cc1ccc(NS(C)(=O)=O)cc1` [Example 309] are more than 6.00 and more than 6.30.
Taken in the same sequence, the figures for `CS(=O)(=O)Nc1cccc(/C=C2\c3ccc(F)cc3CCc3nc(C(F)(F)F)ccc32)c1` [Example 522] were more than 6.30 and more than 6.30.
In the same order, the values of `CC/C(=C1\c2ccccc2COc2ccccc21)c1cccc(NS(C)(=O)=O)c1` [Example 799] are more than 6.30 and more than 6.30.
With `CC(C)Cn1c(=O)[nH]c2cc(/C=C3/c4ccccc4COc4cc(F)ccc43)ccc21` [Example 711], the pKi is more than 6.00 on glucocorticoid receptor and more than 6.30 at human MR.
In the same order, the values of `Cc1cccc2c1SCc1ccccc1C2=Cc1cccc(NS(C)(=O)=O)c1` [Example 695] are more than 6.30 and more than 6.30.
For `CC(=O)Nc1cccc(C=C2c3ccccc3CCc3ccccc32)c1` [Example 114, N-[3-(10,11-Dihydro-dibenzo[a,d]cyclohepten-5-ylidenemethyl)-phenyl]-acetamide], the pKi at glucocorticoid receptor and at human MR was more than 6.30 throughout.
As for `Fc1ccc2c(c1)OCc1ccccc1C2=Cc1cccc(C(F)F)c1` [Example 640], the pKi on glucocorticoid receptor and on human MR was more than 6.30 throughout.
Regarding `Cc1ccc2c(c1)CCc1cc(F)ccc1/C2=C/c1cccc(NS(C)(=O)=O)c1` [Example 422], the pKi on glucocorticoid receptor and at human MR was more than 6.30 throughout.
On to `COC(=O)c1ccccc1/C=C1/c2ccc(F)cc2CCc2ncccc21` [Example 589], for which the negative-log Ki (pKi) on glucocorticoid receptor and on human MR was more than 6.30 throughout.
Turning to `Oc1cccc(C=C2c3ccccc3CCc3c2ccc(Cl)c3Cl)c1` [198(b), 3-(1,2-Dichloro-10,11-dihydro-dibenzo[a,d]cyclohepten-5-ylidenemethyl)-phenol], the pKi is more than 6.00 at glucocorticoid receptor and more than 6.30 on human MR.
Take `Cc1cccc(C=C2c3ccccc3CCc3ccccc32)c1` [Example 132, 5-(3-Methyl-benzylidene)-10,11-dihydro-5H-dibenzo[a,d]cycloheptene]: the results for the pKi on glucocorticoid receptor and at human MR were more than 6.00 and more than 6.30, respectively.
In the same order, the values of `CS(=O)(=O)Nc1cccc(/C=C2\c3ccccc3NC(=O)c3ccccc32)c1` [Example 261, N-[3-(6-Oxo-5,6-dihydro-dibenzo[b,e]azepin-11-ylidenemethyl)-phenyl]-methanesulfonamide] are more than 6.30 and more than 6.30.
Taken in the same sequence, the figures for `CS(=O)(=O)c1cccc(C=C2c3ccccc3CCc3ccccc32)c1` [Example 279, 5-(3-Methanesulfonyl-benzylidene)-10,11-dihydro-5H-dibenzo[a,d]cycloheptene] were more than 5.00 and more than 6.30.

Values taken from patent publication US20060063759A1, “Tricyclic steroid hormone nuclear receptor modulators” (priority 2002, published 2006).
